Experimental data from patent EP4722262A1, “PHOTOCURABLE COMPOSITION, THREE-DIMENSIONAL SHAPED OBJECT, CASTING MOLD, METHOD FOR PRODUCING CURED OBJECT, AND METHOD FOR PRODUCING DENTAL PROSTHESIS” (Mitsui Chemicals, Inc., priority 2023, dated 2025).

Test: Viscosity at 25°C of manufactured monomers
Format: physicochemical

For `C=CC(=O)OCCOC(=O)NCCC(C)CC(C)(C)CNC(=O)OCCOC(=O)C=C` (stereo not shown) [SUA-001], the “viscosity at 25°C” value was 7,100 mPa·s.
